{
  "source": "patent US5091419A",
  "about": "“Diurea derivatives useful as medicaments and processes for the preparation thereof” (Yamanouchi Pharmaceutical Co., Ltd., priority 1988, dated 1992)",
  "biological_target": "acyl CoA: cholesterol acyltransferase (ACAT)",
  "assay": "Inhibiting activity against ACAT activity of rabbit's liver microsome",
  "format": "biochemical",
  "conditions": "rabbit's liver microsome enzyme fraction, 1-14C-oleoyl CoA, 37° C.; read-out: Inhibiting activity against ACAT activity: IC (M) 50%",
  "description": "Inhibiting activity against acyl CoA: cholesterol acyltransferase (ACAT) activity of rabbit's liver microsome According to Heider's method [J. G. Heider et al., J. of Lipid Res. Vol. 24, 1127-34 (1983)], rabbit's liver microsome was treated to obtain enzyme fraction. To 0.154M of phosphoric acid buffer solution (pH 7.4), 2 mM of dithiothreitol, 36 μM of bovine serum albumin and 10 to 100 μg of microsome fraction, liposome prepared by Suckling's method [K. E. […] Then, 36 μM oleoyl CoA containing 1-^14 C-oleoyl CoA was added and the whole mixture was heated for 10 minutes at the temperature of 37° C. The reaction was ceased by adding chloroform/methanol (=2/1). Upon stirring, cholesterol oleate extracted into chloroform layer was separated by thin layer chromatography and the radioactivity was then determined as ACAT activity.",
  "data": [
    {"smiles": "O=C(Nc1ccc(F)cc1F)N(Cc1cccc(CN(C(=O)Nc2ccc(F)cc2F)C2CCCCCC2)c1)C1CCCCCC1", "note": "[Example 1, 1,3-bis[[1-cycloheptyl-3-(2,4-difluorophenyl)ureido]methyl]benzene]", "values": [
      {"measurement": "IC50", "value": "1.8e-08", "unit": "M"}
    ]}
  ]
}
